Earlier results as cited in patent US6376550B1, “Pharmaceutical compositions containing tramadol for migraine” (ASTA Medica AG, priority 1999, dated 2002).

Conditions: in vivo

COc1cccc(C2(O)CCCCC2CN(C)C)c1 (stereo not shown) [tramadol, 2-[(dimethylamino)methyl]-1-(3-methoxyphenyl)cyclohexanol]
terminal elimination half life: 5 to 6 h
